Data set [1] can be described thus: Relaxivity measurements at 1.41 T in water and human plasma. It is filed as physicochemical. The note with it: 37°C, normalized to Gd. The method, then: Relaxivity measurements at 1.41 T were performed using a MiniSpec mq60 spectrometer (Bruker Analytik, Karlsruhe, Germany) operating at a resonance frequency of 60 MHz and a temperature of 37°C. The T1 relaxation times were determined using the standard inversion recovery (IR) method with a fixed relaxation delay of at least 5 × T1. The variable inversion time (TI) was calculated automatically by the standard software of the MiniSpec mq60 (8 steps). The T2 measurements were performed by using a Carr-Purcell-Meiboom-Gill (CPMG) pulse sequence, applying a relaxation delay of at least 5 × T1.
Each relaxivity measurement was performed using three different Gd concentrations (3 concentrations between 0.05 and 2 mM). The T1 and T2 relaxation times of the example compounds 1 to 10 were measured in different media for example in water and human plasma. Human plasma preparation: For each experiment fresh blood was taken from a volunteer using 10 mL citrate-tubes (Sarstedt S-Monovette 02.1067.001, 10 mL, Citrate). The 10 mL citrate-tubes were carefully inverted 10 times to mix blood and anticoagulant and centrifuged for 15min at 1811 g at RT (Eppendorf, Centrifuge 5810R).
The relaxivities ri (where i=1, 2) were calculated based on the measured relaxation rates Ri in water and plasma: ri = (Ri−Ri(0))/CGd [formula] where Ri(0) represent the relaxation rate of the respective solvent and CGd the concentration of the compound normalized to the Gadolinium. The Gadolinium concentrations of the investigated solutions were verified by Inductively Coupled Plasma Mass Spectrometry (ICP-MS Agilent 7500a, Waldbronn, Germany). Table 3: Relaxivities of investigated compounds in water and human plasma at 1.41 T and relaxivities of Reference compounds 1-3 (RC1-RC3) at 1.5 T in water and bovine plasma. All values are measured at 37°C and normalized to Gd and given in L mmol-1 s-1.

A further data set has as its target T1, OATP1B1 (Homo sapiens, UniProt Q9Y6L6).
T1 sequence (Q9Y6L6 1-691): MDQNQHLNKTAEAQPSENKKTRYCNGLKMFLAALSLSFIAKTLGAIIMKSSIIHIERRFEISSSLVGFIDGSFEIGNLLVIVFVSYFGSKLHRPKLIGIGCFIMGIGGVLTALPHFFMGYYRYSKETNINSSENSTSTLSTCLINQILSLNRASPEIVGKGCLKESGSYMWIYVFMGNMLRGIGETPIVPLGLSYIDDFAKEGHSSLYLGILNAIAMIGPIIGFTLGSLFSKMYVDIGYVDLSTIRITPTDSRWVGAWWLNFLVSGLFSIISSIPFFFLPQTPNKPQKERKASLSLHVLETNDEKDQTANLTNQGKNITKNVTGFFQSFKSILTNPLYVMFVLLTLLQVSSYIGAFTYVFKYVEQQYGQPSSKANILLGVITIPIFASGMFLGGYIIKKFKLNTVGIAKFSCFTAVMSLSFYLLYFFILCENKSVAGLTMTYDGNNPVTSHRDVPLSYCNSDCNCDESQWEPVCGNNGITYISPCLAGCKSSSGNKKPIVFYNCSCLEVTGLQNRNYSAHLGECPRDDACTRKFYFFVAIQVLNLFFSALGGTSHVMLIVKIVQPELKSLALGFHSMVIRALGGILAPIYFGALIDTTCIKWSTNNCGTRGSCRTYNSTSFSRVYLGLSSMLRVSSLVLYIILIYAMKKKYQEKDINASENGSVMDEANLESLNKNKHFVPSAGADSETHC
Briefly: Uptake into stable transfected OATP1B1 HEK 293 cells. Format: cell-based. The following applies: 100 µM, 40 min, relative to RC1 (Gd-EOB-DTPA). The method, then: Human stable transfected OATP1B1 human embryonic kidney 293 cells (OATP1B1 HEK 293, SLCO1B1, Entrez Gene ID: 10599) were used (Leonhardt M et al. Drug Metab Dispos. 2010 Jul;38(7):1024-8). The following culture medium was used: 500 mL DMEM (Dulbecco's Modified Eagle Medium - high Glucose, D6429), 50 mL FCS (fetal bovine serum, Fa. Sigma, F7524), 5.8 mL G418 (Geneticin, Fa. Gibco 10131-027) and 5 mL Pen-Strep. (Penicillin-Streptomycin, Fa. Gibco, Ref 15140-122). Cryopreserved cells were shortly thawed in water bath and diluted in 10 mL warm culture medium (37°C). After medium change the cells were grown for 3d in a 25 cm^2 cell culture flask. After 3 to 5d the cells were transferred into 75 cm^2 flasks. For the splitting the cells were incubated with 1.5 mL trypsin (Trypsin-EDTA (1x) 0,05%, Ref 25300-054 100ml, Fa. Gibco) for 3-5min in the incubator (37°C, 5% CO2 and […]). After centrifugation and washing with medium the cells were counted (50 µL cell suspension and 50 µL trypan blue (Trypan Blue Solution, 93595-50ml, Fa. Fluka). Cells were cultured (1×10^5 cells/well) in poly-D-lysine coated 24-well plates (Fa. Corning, Ref: 354414) in 1.5 mL medium per well. After 48h in the incubator the medium was changed and 1.5 mL/well sodium butyrate containing medium were added (40 mL culture medium plus 400 µL Na-Butyrate, Fa. Sigma Aldrich B5887-5G, 250 mg in 2.27 mL MilliQ water). After 24h in the incubator the medium was vacuumed off and 1.5 mL transport buffer was added and incubated for 10min. The transport buffer contains the following ingredients: 500 mL HBSS (Hank's balanced salt solution, Hyclone, SH30268.01), 5 mL HEPES buffer (4-(2-hydroxyethyl)-1-piperazineethanesulfonic acid, Gibco 15630-056) and 3.9 mL glucose (Sigma, G8270-100, 90 g/200mL MilliQ water). All test items were prepared in transport buffer at a final concentration of 100 µM from stock solutions (180 to 500 mM concentration). The OATP1B1 HEK 293 cells were incubated with test solutions (test item in transport buffer 500 µL) for 40min on a thermoshaker without shaking (PHMP, Fa. Grant Bio). Triplicates were performed for each test item. After incubation the cells were washed with 2 mL of cold PBS (+) buffer (Dulbeccos PBS +, Fa. Gibco). […] As a reference standard Gd-EOB-DTPA (gadoxetate) is used in the same well plate. The OATP1B1 HEK 293 uptake of the test compound is calculated relative to gadoxetate (resulting in the unit % of RC1).

Data set [2] is described as follows: Water solubility in aqueous buffer. The following applies: aqueous buffer 10 mM Tris-HCl, pH 7.4, 20°C; Gd by ICP-MS. Format: physicochemical. The method, then:
The exploratory water solubility of the compounds is determined at room temperature (20°C) in 0.5 mL buffer solution (10 mM Tris-HCI, pH 7.4) in the microcentrifuge tubes (Eppendorf, 2.0 mL safe-lock caps). The solid compounds were added stepwise to the buffer solution. More substance is added once all the suspended material is dissolved until an equilibrium between undissolved and dissolved substance is reached. The suspension was mixed using a shaker (Heidolph Reax 2000) and treated 5 min in an ultrasound bath (Bandelin, Sonorex Super RK255H). The Gadolinium concentration of the test substance in the clear solution is measured by ICP-MS. Table 1: Solubilities of compounds in aqueous buffer at 20°C (pH 7.4).

Usually Solubility stands for how much of the substance goes into solution per volume. Read a high Solubility as much dissolved substance.

Take “Gadolinium-2,2',2"-[10-(carboxymethyl)-2-(4-ethoxybenzyl)-1,4,7,10-tetraazacyclododecane-1,4,7-triyl]triacetate [Example 8]”: in data set [1], the r1 human plasma stood at 6.5 L/mmol/s and the r1 water is 4.7 L/mmol/s. Besides, on OATP1B1, the “Uptake into OATP1B1-HEK 293 cells” value is recorded as 208 % of RC1.
As for “Gadolinium-2,2',2"-[10-(carboxymethyl)-2-(4-ethoxybenzyl)-1,4,7,10-tetraazacyclododecane-1,4,7-triyl]triacetate [Example 9]”, the Solubility in data set [2] was more than 145 mM. In data set [1], this substance came in with a r1 human plasma of 5.6 L/mmol/s and a r1 water of 4.3 L/mmol/s. Also, the “Uptake into OATP1B1-HEK 293 cells” value at OATP1B1 is 60 % of RC1.
For “Gadolinium-2,2',2"-[(2S)-2-(4-butoxybenzyl)-10-(carboxymethyl)-1,4,7,10-tetraaza cyclododecane-1,4,7-triyl]triacetate [Example 12]”, in that order: 211 mM, 8.8 L/mmol/s, 4.7 L/mmol/s and 119 % of RC1.
In the case of “Gadolinium-2,2',2"-[(2S)-2-(4-butoxybenzyl)-10-(carboxymethyl)-1,4,7,10-tetraaza cyclododecane-1,4,7-triyl]triacetate [Example 13]”, the Solubility in data set [2] is more than 43 mM. For the same substance, in data set [1], the r1 human plasma was found to be 9.8 L/mmol/s and the r1 water amounted to 5.3 L/mmol/s. The “Uptake into OATP1B1-HEK 293 cells” value on OATP1B1 is 847 % of RC1.
“Gadolinium-2,2',2"-[(2S)-10-(carboxymethyl)-2-(4-ethoxybenzyl)-1,4,7,10-tetraazacyclododecane-1,4,7-triyl]triacetate [Example 10]”: in data set [2], the Solubility is more than 23 mM. Moreover, in data set [1], the r1 human plasma amounted to 6.4 L/mmol/s and the r1 water turned out to be 4.8 L/mmol/s. Besides, at OATP1B1, the “Uptake into OATP1B1-HEK 293 cells” value is reported as 212 % of RC1.
The substance “Gadolinium-2,2',2"-[(2S)-10-(carboxymethyl)-2-(4-ethoxybenzyl)-1,4,7,10-tetraazacyclododecane-1,4,7-triyl]triacetate [Example 11]” came in with a Solubility in data set [2] of more than 146 mM. In data set [1], this substance yielded a r1 human plasma of 6.2 L/mmol/s and a r1 water of 4.4 L/mmol/s. Further, the “Uptake into OATP1B1-HEK 293 cells” value at OATP1B1 is listed as 96 % of RC1.

Source of the values: patent EP4335840A1, “NEW CONTRAST AGENTS FOR USE IN DIAGNOSTIC IMAGING” (priority 2022, dated 2024).
